Laboratory results from patent US20260083704A1, “LXR MODULATORS WITH BICYCLIC CORE MOIETY FOR TREATING DYSLIPIDEMIAS” (OrsoBio, Inc., priority 2022, published 2026).

How the values were obtained:
LXRα = molecular target: T1, LXRα (Homo sapiens, UniProt Q13133); experiment: Biochemical binding assay LXRα; details: mean ± SD; read-out: LXα binding EC50
T1 sequence (Q13133 1-447): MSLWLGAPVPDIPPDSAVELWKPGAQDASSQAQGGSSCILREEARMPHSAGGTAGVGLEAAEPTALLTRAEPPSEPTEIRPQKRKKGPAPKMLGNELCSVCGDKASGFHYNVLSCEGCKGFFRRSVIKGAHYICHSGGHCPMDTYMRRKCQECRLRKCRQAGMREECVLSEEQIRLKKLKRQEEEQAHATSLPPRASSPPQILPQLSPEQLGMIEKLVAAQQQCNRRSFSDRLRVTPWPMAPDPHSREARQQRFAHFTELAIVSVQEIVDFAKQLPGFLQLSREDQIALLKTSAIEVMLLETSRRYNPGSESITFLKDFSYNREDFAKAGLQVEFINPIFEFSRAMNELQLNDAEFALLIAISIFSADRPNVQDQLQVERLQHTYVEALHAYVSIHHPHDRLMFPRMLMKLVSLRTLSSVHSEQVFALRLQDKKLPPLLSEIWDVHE
Experimental: (§1) The potencies of Compound 21/3 and its analog, Compound pre-6/3, against LXRα and LXRβ were evaluated in biochemical binding assays, cellular mammalian two-hybrid (M2H) interaction assays evaluating nuclear receptor co-repressor (NCOR) recruitment, and cellular reporter assays evaluating transcriptional activity (Table 5).

LXRβ = molecular target: T2, LXRβ (Homo sapiens, UniProt P55055); experiment: Biochemical binding assay LXRβ; details: mean ± SD
T2 sequence (P55055 1-460): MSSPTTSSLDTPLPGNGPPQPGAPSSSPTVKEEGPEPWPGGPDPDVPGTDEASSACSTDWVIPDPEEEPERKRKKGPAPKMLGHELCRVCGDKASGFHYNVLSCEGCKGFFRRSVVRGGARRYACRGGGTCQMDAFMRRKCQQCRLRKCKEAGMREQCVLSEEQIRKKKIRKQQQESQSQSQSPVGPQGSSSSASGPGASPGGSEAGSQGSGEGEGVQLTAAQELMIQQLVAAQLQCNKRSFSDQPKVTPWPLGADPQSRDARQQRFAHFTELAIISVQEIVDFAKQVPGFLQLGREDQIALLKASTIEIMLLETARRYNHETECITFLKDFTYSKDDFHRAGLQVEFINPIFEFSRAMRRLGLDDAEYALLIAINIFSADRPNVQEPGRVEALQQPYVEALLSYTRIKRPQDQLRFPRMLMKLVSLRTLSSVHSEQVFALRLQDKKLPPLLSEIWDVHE
Experimental: as §1

ABCA1 reporter in HT-29 = experiment: HT-29 ABCA1 reporter assay; type: cell-based; details: Homo sapiens; HT-29, mean ± SD
Experimental: as §1

[1] = test system: SREBP1c reporter in HepG2; experiment: HepG2 SREBP1c reporter assay; type: cell-based; details: Homo sapiens; HepG2, mean ± SD
Experimental: as §1

[2] = test system: human primary Upcyte hepatocytes; experiment: Lipid accumulation in human primary Upcyte hepatocytes (Bodipy staining); type: cell-based; details: Hepatocyte, 120 h, glucose 25 mM and palmitate, 5 days
Experimental: Inhibition of LXR activity in hepatocytes is hypothesized to reduce intracellular TG accumulation via inhibition of DNL. The effects of Compound 21/3 on lipid accumulation in human primary Upcyte® hepatocytes were evaluated. Briefly, human primary Upcyte hepatocytes were cultivated in media containing high concentrations of glucose (25 mM) and palmitate ([…]) for 5 days in the presence or absence of Compound 21/3, and intracellular lipids were measured by Bodipy™ staining. […] Data are shown as mean±SD. n=2 wells per treatment; N=8 experiments.

DIO mice = experiment: Diet-induced obese (DIO) mouse model; type: in vivo
Excerpt: (§2) Data are shown as mean±SD. N=5-8 animals per group. *p≤0.05, **p≤0.01, ***p≤0.001, ****p≤0.0001 vs. vehicle, unless otherwise indicated; ^#p≤0.05 pioglitazone vs. vehicle Kruskal-Wallis (non-parametric One-Way ANOVA) test with Dunn's multiple comparisons test (FIG. 4A, FIG. 4B, FIG. 4D), repeated measures two-way ANOVA with Dunnett's multiple comparisons test (FIG. 4C), two-way ANOVA with Sidak's multiple comparisons test (FIG. 4E), Mann-Whitney test (FIG. 4F-G).
(§3) Data are shown as mean±SD. N=5-8 animals per group. *p≤0.05, **p≤0.01, ***p≤0.001, ****p≤0.0001 vs. vehicle, unless otherwise indicated; ^#p≤0.05 pioglitazone vs. vehicle repeated measures two-way ANOVA with Dunnett's multiple comparisons test (FIG. 5A, FIG. 5C, FIG. 5D), Kruskal-Wallis (non-parametric one-way ANOVA) test with Dunn's multiple comparisons test (FIG. 5B, FIG. 5E).
The efficacy of Compound 21/3 was evaluated in three dysmetabolic rodent models including DIO mice, HFD-fed ZDF rats, and HFD-fed SD rats (FIG. 4 and FIG. 5). Briefly, DIO mice were fed a HFD (60% kcal from fat) for 14 weeks and treated with Compound 21/3 (0.3 and 1 mg/kg once daily by oral gavage) for three weeks, while ZDF and SD rats were fed HFD for two weeks prior to treatment with Compound 21/3 (0.1 and 1 mg/kg once daily by oral gavage) for two or three weeks, respectively.

HFD-fed ZDF rats = experiment: HFD-fed Zucker diabetic fatty (ZDF) rat model; type: in vivo
Excerpt: as §2, §3
The efficacy of Compound 21/3 was evaluated in three dysmetabolic rodent models including DIO mice, HFD-fed ZDF rats, and HFD-fed SD rats (FIG. 4 and FIG. 5). Briefly, DIO mice were fed a HFD (60% kcal from fat) for 14 weeks and treated with Compound 21/3 (0.3 and 1 mg/kg once daily by oral gavage) for three weeks, […]

ApoC3 and ANGPTL3 = experiment: Phase 1 study, MAD cohorts: plasma ApoC3 and ANGPTL3 by ELISA; type: in vivo, human; details: healthy subjects, Day 1 to Day 14, 12 h postdose
Experimental: Lipid parameters, including apolipoprotein B (apoB), were evaluated by NMR LipoProfile® (Labcorp, Burlington, NC. Plasma ApoC3 and ANGPTL3 were evaluated by ELISA (360biolabs, Melbourne, Australia). Peripheral RCT (reverse cholesterol transport) were evaluated by assessing changes in expression of ABCA1/ABCG1 in PBMCs, predose and 4 hours postdose on Days 1 and 14 (Gnomix, Bedford Park, Australia).
In FIG. 14A to 14C, ApoC3 and ANGPTL3 measured 12 h postdose. RCT assessed predose and 4 h postdose on Day 14.

N#Cc1cccc(C#N)c1-c1c(-c2cccc(-c3ccc(C(=O)NCC(=O)O)cc3Cl)c2)n(S(=O)(=O)c2ccc(C(F)F)cc2)c2ccc(F)cc12 [Compound 21/3]
EC50 (LXRα): 7 ± 16 nM
EC50 (LXRβ): 15 ± 3 nM
IC50 (ABCA1 reporter in HT-29): 15 ± 4 nM
IC50 [1]: 7 ± 5 nM
EC50 [2]: 289 ± 34 nM
expression of Hmgcr and Cyp7a1 in the liver and Abca1, Abcg5, Abcg8 in the intestine (DIO mice; DIO mice): dose-dependently reduced
expression of cholesterol efflux transporters Abca1 and Abcg1 in the buffy coat (DIO mice; DIO mice): did not alter
plasma TG levels (DIO mice; DIO mice): reduced
liver expression of DNL genes (Srebp1c, Fasn, Acaca, Scd1) (DIO mice; DIO mice, 0.3 and 1 mg/kg once daily oral, three weeks): dose-dependently reduced
maximal reduction of liver TG versus vehicle (DIO mice; DIO mice, p≤0.001): 65%
reduction of plasma total cholesterol (TC) at end of treatment compared with vehicle (DIO mice; DIO mice, p≤0.05): 49%
intestinal Srebp1c expression (DIO mice; DIO mouse, ileum): dose-dependently reduced
liver TC (DIO mice; dysmetabolic rodent models (FIG. 5B), particularly higher dose groups): statistically significant increase
liver biochemistry tests, plasma ALT or AST, compared with vehicle (DIO mice; dysmetabolic rodent models (FIG. 5C-D)): not associated with substantial elevations
hepatic expression and plasma levels of ANGPTL3 (HFD-fed ZDF rats; 15 mg/kg once daily oral): reduced
immunostaining of pancreatic sections for insulin relative to vehicle (HFD-fed ZDF rats; 15 mg/kg once daily oral, 5 weeks): more prominent staining for insulin
glucose tolerance (oral glucose tolerance test) (HFD-fed ZDF rats; 15 mg/kg once daily oral, after 4 weeks of dosing): significantly improved
liver expression of DNL genes (Srebp1c, Fasn, Acaca, Scd1) (HFD-fed ZDF rats; 0.1 and 1 mg/kg once daily oral): dose-dependently reduced
reduction of plasma TG compared with vehicle (HFD-fed ZDF rats; highest dose 1 mg/kg, p≤0.05): 96%
maximal reduction of liver TG versus vehicle (HFD-fed ZDF rats; p≤0.01): 49%
reduction of plasma total cholesterol (TC) at end of treatment compared with vehicle (HFD-fed ZDF rats; p≤0.05): 67%
plasma ApoC3 and ANGPTL3 (ApoC3 and ANGPTL3): reduces

N#Cc1cccc(C#N)c1-c1c(-c2cccc(-c3ccc(C(=O)O)cc3Cl)c2)n(S(=O)(=O)c2ccc(C(F)F)cc2)c2ccc(F)cc12 [pre-6/3]
EC50 (LXRα): 14 ± 5 nM
EC50 (LXRβ): 17 ± 7 nM
IC50 (ABCA1 reporter in HT-29): 0.7 ± 0.1 nM
IC50 [1]: 0.2 ± 0.1 nM
hepatic expression of Angptl3, Angptl4, Angptl8, ApoC1, ApoC2, ApoC3 (HFD-fed ZDF rats; 5 mg/kg once daily oral): suppressed
